Data set [1] deals with ARPE-19 cells. As to the kind of experiment: Fibronectin deposition assay in TGFβ-stimulated ARPE-19 cells. It is filed as cell-based, human. The following applies: for pIC50: ARPE-19 cells stimulated with TGFβ, incubated 96 hours. On the procedure: ARPE-19 cells were plated into 96-well plates (10,000 cells/well) and allowed to attach. Media was removed and replaced with the media specified in the “Cell Culture” section above, without FBS. Cells were treated for four days±TGFβ (10 ng/mL) and 10 μM loxapine. Cells were fixed with 10% neutral buffered formalin (Sigma-Aldrich) for 15 minutes. Cells were permeabilized with 0.25% Triton X-100 (Sigma-Aldrich) and blocked with 1% BSA for 1 hour. Cells were incubated with mouse monoclonal IgG3 primary antibodies against fibronectin (Santa Cruz Biotechnology), which were diluted 1:400 in 0.25% Triton X-100 (Sigma-Aldrich) with 1% BSA. Cells were incubated with primary antibodies either in 4° C. overnight or at room temperature for 2 hours. Cells were washed with PBS (Gibco), then incubated for 1 hour with Alexa Fluor® 488 donkey anti-mouse IgG (H+L) secondary antibodies (Life Technologies) and DAPI (Thermo Fisher Scientific), which were each diluted 1:1000 in 0.25% Triton X-100 (Sigma-Aldrich) with 1% BSA. Cells were washed again with PBS (Gibco). Immunofluorescence was measured using a Cytation 5 imaging reader (BioTek).
The compounds of this Example were tested using the fibronectin deposition assay described in Example 1. In brief, ARPE-19 cells were stimulated with TGFβ+/−the indicated concentration of each compound. Incubated 96 hours Fixed and immunostained for fibronectin.
In brief, ARPE-19 cells were stimulated with TGFβ+/−the indicated concentration of each compound. Incubated 96 hours, fixed and immunostained for fibronectin.

Data set [2] relates to profibrotic gene expression (COL1A1, ACTA2, FN1) in ARPE-19 cells. As to the kind of experiment: Profibrotic gene expression by qPCR in ARPE-19 cells treated ±TGFβ. It is filed as cell-based, human. The following applies: ARPE-19 + TGFβ (10 ng/mL), 24 hours; antagonists 10 μM, pramipexole 1 μM; compared to TGFβ only. On the procedure:
ARPE-19 cells were plated into 12 well plates (100,000 cells/well) and allowed to attach. Media was removed and replaced with the media specified in the “Cell Culture” section above, minus FBS. Cells were treated for 24 hours±TGFβ (10 ng/mL), 1 μM pramipexole, and 10 μM loxapine. RNA was isolated using the RNeasy Plus Mini Kit (Qiagen) and the manufacturer's protocol. Isolated RNA was converted to cDNA using the SuperScript VILO cDNA Synthesis Kit (Invitrogen) and the PTC-200 Peltier Thermal Cycler (MJ Research). Quantitative PCR (qPCR) was performed using FastStart Essential DNA Green Master (Roche) and LightCycler 96 (Roche).
After identifying the preferential expression of DRD2 in ARPE-19 cells, the regulatory effects of these receptors on fibrotic activation were elucidated. As to D2 dopamine receptor (FIG. 2A-B), RNA isolation and qPCR were used to measure the transcript levels of fibrotic markers in ARPE-19 cells treated±TGFβ, pramipexole (D2 agonist), and loxapine (D2 antagonist). […] In experiments combining pramipexole and loxapine along with TGFβ negates the activity of the molecules alone, confirming their activity is being driven by their interaction with the D2 receptor (FIG. 2B).
The effect of solnitropine, solupine, and loxapine on the expression of profibrotic genes COL1A1 and FN1 were evaluated as described in Example 1 (FIGS. 7A and 7B). In brief, ARPE-19 cells were treated±TGFβ in the presence of either loxapine, solnitropine, or solupine. Gene expression was measured by qPCR on RNA isolated from the treated cells 24 h after treatment.
A general note: Real-time PCR tracks product formation cycle by cycle.

In the next data set the test system is mouse eye. As to the kind of experiment: Toxicology scoring of mouse eye injected with solupine. The format is in vivo. The following applies: mice, 14 days. How it is done:
Mice were injected with 1 μL of PBS (FIG. 17A), 1 μL PBS containing 10 μg/0.05 mL solupine (FIG. 17B), or 1 μL PBS containing 30 μg/0.05 mL solupine (FIG. 17C). The eyes were then analyzed by a pathologist and scored for the indicated observations of ocular toxicities. over the course of 14 days. Work was performed under contract with Labcorp. N=3-6 mice/group.

Data set [3] concerns ARPE-19 cells. The data set can be described thus: Fibronectin deposition in ARPE-19 cells stimulated with a cocktail of profibrotic ligands. The following applies: TGF-β1, TGF-β2, TNF-α, FGF-β, PDGF-CC all at 10 ng/mL, 10 μM solupine. It is filed as cell-based, human. How it is done:
ARPE-19 cells were cultured as described in FIGS. 4-6 and fibronectin was measured after stimulating the cells with a combination of profibrotic soluble factors including: T1=TGF-β1, T2=TGF-β2, Tα=TNF-α, Fβ=FGF-β, PC=PDGF-CC, (all at 10 ng/mL). +/−10 μM solupine. N=3. Results: solupine maintains its efficacy at blocking RPE cell fibronectin deposition when profibrotic factors are combined in a cocktail.

Data set [4] deals with ARPE-19 cells. As to the kind of experiment: Solupine functional stability (stored saline stock vs fresh, FGF-β proliferation readout). The format is cell-based, human. The following applies: dissolved in saline, opaque sealed container, 4° C.; potency compared with fresh stock in FGF-β proliferation. On the procedure: A powder stock of solupine was dissolved in saline and stored in an opaque, sealed container at 4° C. for 90 days. The potency and efficacy of this stored stock was then compared to freshly solubilized stock of solupine dissolved in saline. ARPE-19 cells were cultured for 4 days with FGF-β and the indicated concentration of fresh or 90-day-old solupine stock. Cells were then assayed for proliferation as described herein for FIGS. 10 and 11. N=3. Results: solupine stock is functionally stable for at least 90 days under these conditions.

The test system of data set [5] is Human conjunctival fibroblasts. As to the kind of experiment: Fibronectin deposition by conjunctival fibroblasts. It is filed as cell-based. The following applies: conditions of FIGS. 4-6, indicated concentrations of solupine. On the procedure: Human conjunctival fibroblasts were cultured under the same conditions described in FIGS. 4-6 and fibronectin deposition was measured after treating with the indicated concentrations of solupine. N=3.

In data set [6] the test system is ARPE-19 cells. As to the kind of experiment: PDGF-CC stimulated proliferation. The following applies: ARPE-19, 10 ng/mL PDGF-CC; compared with methotrexate. It is filed as cell-based, human. How it is done: Effect of methotrexate, solupine, sertindole, penfluridol, pimozide, and fluspirilene, on FGF-β stimulated proliferation was determined. Methods: ARPE-19 cells were seeded into 96-well plates (1,000 cells/well) and incubated for 6 h at 37° C. After, media was removed and exchanged for media containing 0% fetal bovine serum+/−10 ng/mL FGF-β, and the indicated concentration of compound. Compound concentrations were selected based on the potencies observed in FIGS. 4A-6B, and 9A-9C. After the indicated number of hours, cells were fixed in 4% formalin, and DAPI stained. Cells were then imaged using an automated microscope (Biotek Cytation5) and the number of DAPI nuclei were quantified using onboard software (Gen5). Raw cells/field of view are plotted. N=3. […] FGF-β levels are elevated in patients with PVR.
Effect of methotrexate and solupine on PDGF-CC stimulated proliferation was determined. Methods: experiments were carried out as described in Example 6, except 10 ng/mL PDGF-CC was used to stimulate proliferation. […] PDGF-CC levels are elevated in patients with PVR.

The mark [7] stands for this setting: fibronectin deposition, read-out: IC50.
The mark [8] stands for this setting: Homo sapiens, fibronectin deposition, read-out: IC50.
[9] abbreviates: Homo sapiens, read-out: IC50 values (fibronectin deposition).

pIC50: −log10 of the molar value. Read-outs that look alike come from different tables or passages of the source. Bounds are passed on as bounds.

For the molecule `CN1CCN(C2=Nc3cc(O)ccc3Oc3ccc(Cl)cc32)CC1` [8-OH-loxapine], the pIC50 in the data set on ARPE-19 cells [1] (setting [7]) was below 5.00.

As to `Clc1ccc2c(c1)N=C(N1CCNCC1)c1ccccc1N2` [N-desmethyl clozapine], in the data set on ARPE-19 cells [1] (setting [7]), the pIC50 is at least 5.30.

Regarding `Cc1cc2c(s1)Nc1ccccc1N=C2N1CCNCC1` [N-desmethyl olanzapine], the pIC50 in the data set with ARPE-19 cells [1] (setting [7]) is at least 5.30.

As to `CCN1CCCC1CNC(=O)c1cc(S(=O)(=O)CC)c(N)cc1OC` (stereo not shown) [amisulpride], in the data set with ARPE-19 cells [1] (setting [8]), the pIC50 is below 5.00.

Consider `O=C1CCc2ccc(OCCCCN3CCN(c4cccc(Cl)c4Cl)CC3)cc2N1` [aripiprazole], for which the fibronectin deposition entry in the data set on ARPE-19 cells [1] (ARPE-19, TGFβ, performed identically to FIGS. 4-6, N=3) is “blocks fibronectin deposition”.

Turning to `O=C(CCCN1CCC(n2c(O)nc3ccccc32)CC1)c1ccc(F)cc1` [benperidol], in the data set on ARPE-19 cells [1] (setting [8]), the pIC50 was at least 5.30.

Regarding `CCN1CCN(c2cc(-c3ccc(F)cc3)c3c(n2)CCCCCC3)CC1` [blonanserin], the pIC50 in the data set on ARPE-19 cells [1] (setting [8]) is 5.00 to 5.30.

As for `O=C(CCCN1CC=C(n2c(=O)[nH]c3ccccc32)CC1)c1ccc(F)cc1` [droperidol], in the data set on ARPE-19 cells [1] (setting [8]), the pIC50 is 5.00 to 5.30.

Turning to `CCc1cc(Cl)c(OC)c(C(=O)NC[C@@H]2CCCN2CC)c1O` [eticlopride], in the data set with ARPE-19 cells [1] (setting [8]), the pIC50 is below 5.00.

As to `O=C1NCN(c2ccccc2)C12CCN(CCCC(c1ccc(F)cc1)c1ccc(F)cc1)CC2` [fluspirilene], the pIC50 in the data set with ARPE-19 cells [1] (setting [8]) is at least 5.30.

On to `CN1CCN(C2=Nc3ccccc3Oc3ccc(Cl)cc32)CC1` [loxapine], for which the pIC50 with ARPE-19 cells [1] (setting [8]) was at least 5.30.

On to `O=C1[C@@H]2[C@H]3CC[C@H](C3)[C@@H]2C(=O)N1C[C@@H]1CCCC[C@H]1CN1CCN(c2nsc3ccccc23)CC1` [lurasidone], for which, in the data set on ARPE-19 cells [1] (setting [8]), the pIC50 was at least 5.30.

Take `CN(Cc1cnc2nc(N)nc(N)c2n1)c1ccc(C(=O)N[C@@H](CCC(=O)O)C(=O)O)cc1` [methotrexate]: the pIC50 with ARPE-19 cells [1] (setting [8]) was below 5.00.

As to `OC1(c2ccc(Cl)c(C(F)(F)F)c2)CCN(CCCC(c2ccc(F)cc2)c2ccc(F)cc2)CC1` [penfluridol], in the data set on ARPE-19 cells [1] (setting [8]), the pIC50 is at least 5.30.

With `OCCN1CCN(CCCN2c3ccccc3Sc3ccc(Cl)cc32)CC1` [perphenazine], in the data set with ARPE-19 cells [1] (setting [8]), the pIC50 is below 5.00.

Turning to `O=c1[nH]c2ccccc2n1C1CCN(CCCC(c2ccc(F)cc2)c2ccc(F)cc2)CC1` [pimozide], in the data set on ARPE-19 cells [1] (setting [8]), the pIC50 is at least 5.30.

For the molecule `CN1CCC(=C2c3ccccc3CCc3sccc32)CC1` [pizotifen], the pIC50 with ARPE-19 cells [1] (setting [8]) is at least 5.30.

Turning to `CCN1CCC[C@H]1CNC(=O)c1c(O)c(Cl)cc(Cl)c1OC` [raclopride], the pIC50 with ARPE-19 cells [1] (setting [8]) was below 5.00.

For the molecule `CCN1CCC[C@H]1CNC(=O)c1c(OC)ccc(Br)c1OC` [remoxipride], the pIC50 with ARPE-19 cells [1] (setting [8]) was below 5.00.

Regarding `O=C1NCCN1CCN1CCC(c2cn(-c3ccc(F)cc3)c3ccc(Cl)cc23)CC1` [sertindole], the pIC50 in the data set on ARPE-19 cells [1] (setting [8]) is at least 5.30.

For `c1ccc2c(c1)Oc1cccnc1N=C2N1CCNCC1` [solnitropine], in data set [2], the “expression of COL1A1” value is given as “significantly reduced” and the “expression of FN1” value was “significantly reduced”. In the data set with ARPE-19 cells [1] (setting [9]), the pIC50 was at least 5.30. Also, the pIC50 in the data set on ARPE-19 cells [1] (setting [8]) is at least 5.30.

As for `c1ccc2c(c1)Oc1sccc1N=C2N1CCNCC1` [solupine], the ocular toxicity scoring entry with mouse eye (eye injection 1 μL PBS containing 10 μg/0.05 mL solupine) and in the data set with mouse eye (eye injection 1 μL PBS containing 30 μg/0.05 mL solupine) was “No observable toxicity” in each case. In the data set with ARPE-19 cells [3], the “fibronectin deposition, cocktail of profibrotic ligands” value was “blocks fibronectin deposition”. For the same molecule, in data set [2], the “expression of COL1A1” value is recorded as “significantly reduced”. Also, the “expression of FN1” value in data set [2] is “significantly reduced”. Besides, the pIC50 in the data set with ARPE-19 cells [1] (setting [9]) and in the data set with ARPE-19 cells [1] (setting [8]) was at least 5.30 throughout. For the same molecule, in the data set with ARPE-19 cells [4], the “functional stability of stock” value is “at least 90 days”. The “fibronectin deposition by conjunctival fibroblasts” value in data set [5] was “does not block fibronectin deposition”. For the same molecule, the “potency at blocking PDGF stimulated proliferation” value with ARPE-19 cells [6] is recorded as “more potent than methotrexate”.

Take `CCN1CCCC1CNC(=O)c1cc(S(N)(=O)=O)ccc1OC` (stereo not shown) [sulpiride]: the pIC50 in the data set on ARPE-19 cells [1] (setting [8]) was below 5.00.

As to `O=C(CCCN1CCC(n2c(=S)[nH]c3ccccc32)CC1)c1ccc(F)cc1` [timiperone], the negative-log IC50 (pIC50) in the data set on ARPE-19 cells [1] (setting [8]) was at least 5.30.

As for `CN1CCN(CCCN2c3ccccc3Sc3ccc(C(F)(F)F)cc32)CC1` [trifluoperizine], the pIC50 with ARPE-19 cells [1] (setting [7]) was below 5.00.

What is called pIC50 is −log10 of the IC50, conventionally taken in molar units.

Source of the values: patent US20250170143A1, “METHODS OF TREATING OCULAR FIBROTIC PATHOLOGIES” (Mayo Foundation for Medical Education and Research, priority 2022, published 2025).
